In patent US5663296A, “Hydroxamate inhibitors of endothelin converting enzyme” (Warner-Lambert Company, priority 1995, dated 1997):
Counter-ions that a name gives are not always drawn. Each block holds one compound with its values, some of them ahead of it. *1 amine or outer side, *2 acyl side, *3 side chain or, on linkers, in order; H or OH if unused. Where a SMILES comes first, the peptide text is derived from it. [ ]: non-standard residue; d: D form. The star is where a group is joined. Trp(1-formyl) = O=Cn1cc(C[C@H](N[*:1])C(=O)[*:2])c2ccccc21; Sta = CC(C)C[C@H](N)[C@@H](O)CC(=O)O; Suc = O=C(CCC(=O)[*:2])[*:1]; Isovaleryl = CC(C)CC(=O)*; Aun = NCCCCCCCCCCC(=O)O; Boc = CC(C)(C)OC(=O)*; NHOH = ON*

Key:
[1] = molecular target: T1, endothelin converting enzyme (ECE) (Homo sapiens, UniProt P42892); assay: ECE activity assay, ir-ET-1 formed from big ET measured by radioimmunoassay; type: biochemical
T1 sequence (P42892 1-770): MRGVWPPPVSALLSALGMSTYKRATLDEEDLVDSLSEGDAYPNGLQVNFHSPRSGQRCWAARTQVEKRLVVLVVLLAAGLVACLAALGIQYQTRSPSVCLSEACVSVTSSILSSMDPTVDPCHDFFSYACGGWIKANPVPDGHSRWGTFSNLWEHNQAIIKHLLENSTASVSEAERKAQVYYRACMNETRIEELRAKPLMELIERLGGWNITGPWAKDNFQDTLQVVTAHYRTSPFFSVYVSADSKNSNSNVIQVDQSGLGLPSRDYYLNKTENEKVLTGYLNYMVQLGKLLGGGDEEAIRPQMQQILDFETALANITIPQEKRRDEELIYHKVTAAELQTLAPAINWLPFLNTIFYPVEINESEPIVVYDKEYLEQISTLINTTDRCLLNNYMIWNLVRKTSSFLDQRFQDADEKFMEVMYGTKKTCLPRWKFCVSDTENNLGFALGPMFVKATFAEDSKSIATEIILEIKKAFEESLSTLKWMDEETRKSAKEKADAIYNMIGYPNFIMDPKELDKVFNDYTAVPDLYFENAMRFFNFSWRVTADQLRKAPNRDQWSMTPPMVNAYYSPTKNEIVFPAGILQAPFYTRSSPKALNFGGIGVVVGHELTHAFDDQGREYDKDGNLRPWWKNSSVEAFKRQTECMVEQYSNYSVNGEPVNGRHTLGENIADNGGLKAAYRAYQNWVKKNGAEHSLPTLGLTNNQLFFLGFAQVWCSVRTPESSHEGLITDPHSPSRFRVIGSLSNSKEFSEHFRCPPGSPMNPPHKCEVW
Protocol: ECE Activity Assay: The typical reaction mixture (50 μL) contained 10 μM big ET, 100 mM Hepes-KOH (pH 7.0), 0.25% Triton X-100, 0.01% NaN3, 0.2 mM phenylmethylsulfonyl fluoride, 50 μM pepstatin A, 0.1 mM leupeptin, the indicated concentration of compound (or DMSO for control), and the indicated amount of protein. The final DMSO concentration was kept at 3%. After incubation for 1.5 hours at 37° C., the reaction was stopped by the addition of EDTA to a final concentration of 10 mM. This final mixture was diluted (usually 100-fold) with the radioimmunoassay buffer (see below) and used for radioimmunoassay.
Radioimmunoassay (RIA): For the measurement of immunoreactive (ir) ET-1, the assay mixture (250 μL) contained the antibody against ET-1, an ET-1 sample, and [^125 I]ET-1 (7000 cpm) in the radioimmunoassay buffer (60 mM potassium phosphate (KPi), pH 7.4/10 mM, EDTA/8 mM, NaN3 /3% DMSO/0.1% bovine serum albumin/0.1% Tween 20). The order of the addition was ET-1 sample, followed by antibody, then [^125 I]ET-1. After incubation at 4° C. for 0.5 to 2 days, unbound ET-1 was co-precipitated by the addition of charcoal (2.4%, w/v)/dextran (0.24%, w/v) suspension (125 μL) in the RIA buffer with BSA replacedby gelatin (0.25%, w/v). The amount of ir-ET-1 was measured by counting the supernatant and determined from the standard curve. The cross-reactivity to big ET-1 was less than 0.01% and the detection limit was 1 Fmol.

[2] = system: cultured vascular endothelial cells and smooth muscle cells; details: cited from earlier work
[3] = system: pressor response of big ET; details: micromolar concentrations; in vitro and in vivo; cited from earlier work
[4] = system: anaesthetized pigs; details: cited from earlier work
[5] = system: allergic sheep; details: cited from earlier work
[6] = system: mouse; details: mouse model of endotoxic shock; cited from earlier work
[7] = system: rats; details: cited from earlier work
[8] = system: rats; details: cited from earlier work; remark: listed apart in the source
[9] = system: cultured bovine aortic endothelial cells; details: intracellular accumulation; cited from earlier work

Compound: CC[C@H](C)[C@H](N)C(=O)N[C@H](C(=O)N[C@@H](Cc1c[nH]c2ccccc12)C(=O)NO)[C@@H](C)CC [Example 6, L-isoleucyl-L--isoleucyl-N-hydroxy-L-tryptophanamide, monohydrochloride] (H-Ile-Ile-Trp-{NHOH})
- inhibition at 100 µM ([1]; read-out: % ECE Inhibition): 74%

Compound: N-[(1,1-dimethyl-ethoxy) carbonyl]-L-isoleucyl-N-hydroxy-L-tryptophanamide [Example 4]
- % ECE Inhibition ([1]; Conc. 100 μM): 44%

Compound: N-[(1,1-dimethylethoxy)-carbonyl]-L-α-aspartyl-L-isoleucyl-n-isoleucyl-1-formyl-N-hydroxy-n-tryptophanamide (Boc-DII[Trp(1-formyl)]-{NHOH}; not fully specified; printed as N-[(1,1-dimethylethoxy)-carbonyl]-L-α-aspartyl-L-isoleucyl-n-isoleucyl-1-formyl-N-hydroxy-n-tryptophanamide) [Example 22]
- % ECE Inhibition ([1]; Conc. 10 μM): 53%
- % ECE Inhibition ([1]; Conc. 40 μM): 73%
- % ECE Inhibition ([1]; Conc. 100 μM): 87%

Compound: CC[C@H](C)[C@H](NC(=O)CCCCCCCCCCN)C(=O)N[C@H](C(=O)N[C@@H](Cc1c[nH]c2ccccc12)C(=O)NO)[C@@H](C)CC [Example 13] (H-[Aun]IIW-{NHOH})
- inhibition at 10 µM ([1]; read-out: % ECE Inhibition): 22%
- inhibition at 50 µM ([1]; read-out: % ECE Inhibition): 57%

Compound: CC(C)C[C@H](NP(=O)(O)O[C@@H]1O[C@@H](C)[C@H](O)[C@@H](O)[C@H]1O)C(=O)N[C@@H](Cc1c[nH]c2ccccc12)C(=O)O [phosphoramidon]
- intracellular conversion of big ET-1 to ET-1 [2]: inhibit the intracellular conversion of big ET-1 to ET-1
- pressor response of big ET [3]: block the pressor response of big ET
- plasma ET-1 level [4]: did not have any effect
- vasoconstrictor effects evoked by intravenous big ET-1 [4]: inhibit vasoconstrictor effects

Compound: CC[C@H](C)[C@H](NC(=O)CCCCCCCCCCN)C(=O)N[C@H](C(=O)N[C@@H](Cc1c[nH]c2ccccc12)C(=O)NOCc1ccccc1)[C@@H](C)CC [Example 12]
- inhibition at 100 µM ([1]; read-out: % ECE Inhibition): 65%

Compound: N-[(1,1-dimethyl-ethoxy) carbonyl]-L-isoleucyl-L-isoleuyl-N-hydroxy-D-tryptophanamide [Example 3]
- % ECE Inhibition ([1]; Conc. 100 μM): 46%

Compound: CC(C)C[C@@H]1NC(=O)[C@@H](C(C)C)NC(=O)[C@@H]2CCCN2C(=O)[C@@H](CC(=O)O)NC(=O)[C@@H](Cc2c[nH]c3ccccc23)NC1=O [BQ-123] (cyclo(L[dW][dD]P[dV]))
- ET-1-induced bronchoconstriction and tracheal smooth muscle contraction [5]: block ET-1-induced bronchoconstriction and tracheal smooth muscle contraction
- survival rate [6]: significantly increased the survival rate

Compound: COc1cccc(Oc2c(NS(=O)(=O)c3ccc(C(C)(C)C)cc3)ncnc2OCCO)c1 [RO 46-2005]
- efficacy in acute renal ischemia model [7]: effective
- efficacy in subarachnoid hemorrhage model [8]: effective

- IC50 ([1]; read-out: IC50 (ECE inhibition)): 4.7 µM
Compound: CC[C@H](C)[C@H](NC(=O)CCC(=O)O)C(=O)N[C@H](C(=O)N[C@@H](Cc1c[nH]c2ccccc12)C(=O)NO)[C@@H](C)CC [Example 10] (Suc-Ile-Ile-Trp-{NHOH})

Compound: CC(C)CC(=O)N[C@H](C(=O)N[C@H](C(=O)N[C@@H](CC(C)C)[C@@H](O)CC(=O)N[C@@H](C)C(=O)N[C@@H](CC(C)C)[C@@H](O)CC(=O)O)C(C)C)C(C)C [pepstatin] (Isovaleryl-VV[Sta]A[Sta]-OH)
- ET-1 production [9]: did not inhibit ET-1 production

Compound: CC[C@H](C)[C@H](NC(=O)OC(C)(C)C)C(=O)N[C@H](C(=O)N[C@@H](Cc1c[nH]c2ccccc12)C(=O)NO)[C@@H](C)CC [Example 2, N-[(1,1-dimethylethoxy)carbonyl]-L-isoleucyl-L-isoleucyl-N-hydroxy-L-tryptophanamide] (Boc-Ile-Ile-Trp-{NHOH})
- inhibition at 100 µM ([1]; read-out: % ECE Inhibition): 47%
